Reference: US20060069132A1, “Azolecarboxamide herbicides” (priority 2004, published 2006)

Assays:
[1] = tested on: Surinam grass; assay: Test B pre-/postemergence herbicide test; type: in vivo, Urochloa decumbens; details: for Plant response rating (0 to 100 scale), Surinam Grass: 0 is no effect, 100 is complete control, preemergence
Procedure, shortened: (§1)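 Pre: seeds sown, then sprayed. Post: 1–4-leaf plants (2–18 cm) sprayed at the same time. Paddy: flooded, treated at 2-leaf stage. Formulation: non-phytotoxic solvent with surfactant. Greenhouse 13–15 days; visual 0–100 score relative to controls.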

[2] = tested on: corn; assay: Test B pre-/postemergence herbicide test; type: in vivo, Zea mays; details: for Plant response rating (0 to 100 scale), Corn: 0 is no effect, preemergence
Procedure, shortened: as §1

[3] = tested on: large crabgrass; assay: Test B pre-/postemergence herbicide test; type: in vivo, Digitaria sanguinalis; details: for Plant response rating (0 to 100 scale), Crabgrass, Large: 0 is no effect, preemergence
Procedure, shortened: as §1

[4] = tested on: giant foxtail; assay: Test B pre-/postemergence herbicide test; type: in vivo, Setaria faberi; details: for Plant response rating (0 to 100 scale), Foxtail, Giant: 0 is no effect, preemergence
Procedure, shortened: as §1

[5] = tested on: lambsquarters; assay: Test B pre-/postemergence herbicide test; type: in vivo, Chenopodium album; details: for Plant response rating (0 to 100 scale), Lambsquarters: 0 is no effect, 100 is complete control, preemergence
Procedure, shortened: as §1

[6] = tested on: morningglory; assay: Test B pre-/postemergence herbicide test; type: in vivo, Ipomoea coccinea; details: for Plant response rating (0 to 100 scale), Morningglory: 0 is no effect, 100 is complete control, preemergence
Procedure, shortened: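 Formulation: non-phytotoxic solvent mix with surfactant. Timing: preemergence on seed and postemergence on 2–18 cm plants, applied concurrently. Readout after 13–15 d greenhouse: visual 0–100 control rating against controls.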

[7] = tested on: pigweed; assay: Test B pre-/postemergence herbicide test; type: in vivo, Amaranthus retroflexus; details: for Plant response rating (0 to 100 scale), Pigweed: 0 is no effect, 100 is complete control, preemergence
Procedure, shortened: as §1

[8] = tested on: velvetleaf; assay: Test B pre-/postemergence herbicide test; type: in vivo, Abutilon theophrasti; details: for Plant response rating (0 to 100 scale), Velvetleaf: 0 is no effect, 100 is complete control, preemergence
Procedure, shortened: as §1

[9] = tested on: blackgrass; assay: Test B postemergence herbicide test; type: in vivo, Alopecurus myosuroides
Procedure, shortened: (§2)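 Scale 0–100: zero equals no visible effect, 100 complete control, judged by eye relative to controls. Timing: 13 to 15 days in greenhouse post-treatment. Growth stage at spraying: two leaves (paddy) or one to four leaves, 2–18 cm (postemergence).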

[10] = tested on: wheat; assay: Test B postemergence herbicide test; type: in vivo, Triticum aestivum; parameters: key to Wheat plant response rating: 0 = no effect, 100 = complete control
Procedure, shortened: as §2

[11] = tested on: wild oat; assay: Test B postemergence herbicide test; type: in vivo, Avena fatua
Procedure, shortened: as §2

[12] = tested on: rice; assay: Test B flooded paddy test; type: in vivo, Oryza sativa; details: 1000 g ai/ha, scale 0 to 100 (0 no effect, 100 complete control)
Procedure, shortened: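 Plants grow to 1- to 4-leaf stage (2–18 cm) for postemergence spraying, or to 2-leaf stage for the paddy test. Formulated compound is applied. Greenhouse holding lasts 13–15 days. Response is scored visually relative to controls, 0 no effect to 100 complete control; a dash means no result.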

[13] = tested on: small flower umbrella sedge; assay: Test B flooded paddy test; type: in vivo, Cyperus difformis; details: 1000 g ai/ha, scale 0 to 100 (0 no effect, 100 complete control)
Procedure, shortened: as §2

[14] = tested on: ducksalad; assay: Test B flooded paddy test; type: in vivo, Heteranthera limosa; details: 1000 g ai/ha, scale 0 to 100 (0 no effect, 100 complete control)
Procedure, shortened: as §2

[15] = tested on: barnyardgrass; assay: Test B flooded paddy test; type: in vivo, Echinochloa crus-galli; details: 1000 g ai/ha, scale 0 to 100 (0 no effect, 100 complete control)
Procedure, shortened: as §2

[16] = 125 g ai/ha, visual rating, scale 0 (no effect) to 100 (complete control), postemergence
[17] = Postemergence, 500 g ai/ha, scale 0 (no effect) to 100 (complete control)
[18] = 125 g ai/ha, 100 is complete control
[19] = postemergence, 500 g ai/ha, scale 0 to 100, 0 is no effect, 100 is complete control
[20] = 500 g ai/ha, scale 0 to 100, 0 no effect, 100 complete control, preemergence
[21] = postemergence, 125 g ai/ha, scale 0 to 100

Row | SMILES | Plant response rating (0 to 100 scale), Surinam Grass ([1]; 125 g ai/ha) | Surinam Grass plant response rating [1, 17] | Plant response rating (0 to 100 scale), Corn [2, 18] | Plant response rating (0 to 100 scale), Crabgrass, Large [3, 18] | Plant response rating (0 to 100 scale), Foxtail, Giant [4, 18] | Plant response rating (0 to 100 scale), Lambsquarters ([5]; 125 g ai/ha) | Lambsquarters plant response rating [5, 17] | Plant response rating (0 to 100 scale), Morningglory ([6]; 125 g ai/ha) | Morningglory plant response rating [6, 17] | Plant response rating (0 to 100 scale), Pigweed ([7]; 125 g ai/ha) | Pigweed plant response rating [7, 17] | Plant response rating (0 to 100 scale), Velvetleaf ([8]; 125 g ai/ha) | Velvetleaf plant response rating [8, 17] | Wheat plant response rating [10, 20] | Wheat plant response rating [10, 17] | Oat, Wild plant response rating [11, 17] | Rice plant response rating [12] | Sedge, Umbrella plant response rating [13] | Ducksalad plant response rating [14] | Barnyardgrass plant response rating [15] | also measured
1 | CCc1nn(C(C)C)nc1C(=O)Nc1cccc(C(=O)N2CCCCC2)c1 [Compound 385] | 80 | 20 | 30 | 90 | 30 | 90 | 60 | 20 | 80 | 70 | 60 | 60 | 20 | 80 | 10 | 20 | 80 | 80 | 80 | 80 | Surinam Grass plant response rating [1, 16]: 0; Corn plant response rating [2, 16]: 10; Corn plant response rating [2, 19]: 10; Crabgrass, Large plant response rating [3, 16]: 0; Crabgrass, Large plant response rating [3, 19]: 20; Foxtail, Giant plant response rating [4, 16]: 10; Foxtail, Giant plant response rating [4, 19]: 20; Lambsquarters plant response rating [5, 16]: 50; Morningglory plant response rating [6, 16]: 30; Pigweed plant response rating [7, 16]: 50; Velvetleaf plant response rating [8, 16]: 20; Blackgrass plant response rating [9, 16]: 10; Blackgrass plant response rating [9, 19]: 30; Wheat plant response rating [10, 16]: 0; Oat, Wild plant response rating [11, 16]: 0
2 | CCc1nn(C(C)C)nc1C(=O)Nc1cccc(C(=O)N(C)CC)c1 [Compound 386] | 80 | 10 | 40 | 100 | 90 | 100 | 60 | 50 | 20 | 100 | 60 | 60 | 50 | 100 | 0 | 0 | 80 | 80 | 90 | 90 | Surinam Grass plant response rating [1, 16]: 10; Corn plant response rating [2, 16]: 0; Corn plant response rating [2, 19]: 10; Crabgrass, Large plant response rating [3, 16]: 10; Crabgrass, Large plant response rating [3, 19]: 20; Foxtail, Giant plant response rating [4, 16]: 20; Foxtail, Giant plant response rating [4, 19]: 20; Lambsquarters plant response rating [5, 16]: 30; Morningglory plant response rating [6, 16]: 20; Pigweed plant response rating [7, 16]: 50; Velvetleaf plant response rating [8, 16]: 40; Blackgrass plant response rating [9, 16]: 0; Blackgrass plant response rating [9, 19]: 40; Wheat plant response rating [10, 16]: 0; Oat, Wild plant response rating [11, 16]: 0
3 | CCn1nc(C(C)(C)C)cc1C(=O)Nc1cccc(OS(=O)(=O)CC)c1 [Compound 408] | 30 | 30 | 10 | 90 | 40 | 100 | 100 | 20 | 30 | 100 | 100 | 50 | 70 | 80 | 30 | 50 | 80 | 90 | 90 | 70 | Surinam Grass plant response rating [1, 21]: 20; Corn plant response rating [2, 17]: 10; Corn plant response rating [2, 21]: 10; Crabgrass, Large plant response rating [3, 17]: 50; Crabgrass, Large plant response rating [3, 21]: 30; Foxtail, Giant plant response rating [4, 17]: 50; Foxtail, Giant plant response rating [4, 21]: 30; Lambsquarters plant response rating [5, 21]: 90; Morningglory plant response rating [6, 21]: 10; Pigweed plant response rating [7, 21]: 90; Velvetleaf plant response rating [8, 21]: 30; Blackgrass plant response rating [9, 17]: 80; Blackgrass plant response rating [9, 21]: 40; Wheat plant response rating [10, 21]: 20; Oat, Wild plant response rating [11, 21]: 30
4 | CCc1nn(C(C)C)nc1C(=O)Nc1cccc(C(=S)N(C)C)c1 [Compound 409] | 90 | 30 | 50 | 90 | 70 | 100 | 70 | 60 | 70 | 90 | 70 | 30 | 0 | 100 | 10 | 10 | 70 | 90 | 70 | 90 | Surinam Grass plant response rating [1, 21]: 10; Corn plant response rating [2, 17]: 10; Corn plant response rating [2, 21]: 0; Crabgrass, Large plant response rating [3, 17]: 10; Crabgrass, Large plant response rating [3, 21]: 0; Foxtail, Giant plant response rating [4, 17]: 20; Foxtail, Giant plant response rating [4, 21]: 0; Lambsquarters plant response rating [5, 21]: 30; Morningglory plant response rating [6, 21]: 0; Pigweed plant response rating [7, 21]: 30; Velvetleaf plant response rating [8, 21]: 0; Blackgrass plant response rating [9, 17]: 40; Blackgrass plant response rating [9, 21]: 10; Wheat plant response rating [10, 21]: 0; Oat, Wild plant response rating [11, 21]: 0
5 | CCN(C(C)=O)C(=O)c1ccc(F)c(NC(=O)c2cc(C(C)(C)C)nn2CC)c1 [Compound 413] | 10 | 20 | 0 | 20 | 10 |  | 90 | 0 | 70 | 20 | 70 | 0 | 50 | 80 | 10 | 10 | 60 | 90 | 80 | 60 | Surinam Grass plant response rating [1, 21]: 20; Corn plant response rating [2, 17]: 20; Corn plant response rating [2, 21]: 10; Crabgrass, Large plant response rating [3, 17]: 20; Crabgrass, Large plant response rating [3, 21]: 10; Foxtail, Giant plant response rating [4, 17]: 20; Foxtail, Giant plant response rating [4, 21]: 20; Lambsquarters plant response rating [5, 21]: 70; Morningglory plant response rating [6, 21]: 30; Pigweed plant response rating [7, 21]: 50; Velvetleaf plant response rating [8, 21]: 30; Blackgrass plant response rating [9, 17]: 20; Blackgrass plant response rating [9, 21]: 10; Wheat plant response rating [10, 21]: 0; Oat, Wild plant response rating [11, 21]: 0
